The record followed here is patent US11505548B2, “Heterocyclic compounds and their use for treatment of helminthic infections and diseases” (Celgene Corporation, priority 2019, dated 2022).

Broadly, the IC50 is the concentration needed to halve the response being measured.

For the test, the system named is Onchocerca gutturosa Adult Male Worms. Kind of test: Onchocerciasis in vitro screening model, worm motility score. In kind it is cell-based. Conditions: Onchocerca gutturosa; Table 1 O. gutturosa; levels A/B/C; motility or MTT readout not specified; read-out: O. gutturosa activity level (IC50 or MED).
In the case of `CC(C)Oc1cnc(-c2nsc(Nc3ncccc3C(C)C)n2)cc1C(F)(F)F` [Compound 168, 3-(5-isoprop-oxy-4-(trifluoromethyl)pyridin-2-yl)-N-(3-isopropyl-pyridin-2-yl)-1,2,4-thiadiazol-5-amine], the IC50 is below 0.2 µM.
As for `CC(C)Oc1ccc(-c2nsc(Nc3ncccc3N(C)C(=O)C(C)C)n2)nc1` [Compound 169, N-(2-(3-(5-isopropoxy-pyridin-2-yl)-1,2,4-thiadiazol-5-ylamino)pyridin-3-yl)-N-methyliso-butyramide], the figure is 0.2 to 0.5 µM; as for `CC(C)Oc1ccc(-c2nsc(Nc3ncccc3N(C)C(=O)C3CC3)n2)nc1` [Compound 170, N-(2-(3-(5-isopropoxy-pyridin-2-yl)-1,2,4-thiadiazol-5-ylamino)pyridin-3-yl)-N-methylcyclo-propanecarbox-amide], 0.2 to 0.5 µM.
As for `CC(C)Oc1ccc(-c2nsc(Nc3ncccc3N(C)C(=O)C3CCC3)n2)nc1` [Compound 171, N-(2-(3-(5-isopropoxy-pyridin-2-yl)-1,2,4-thiadiazol-5-ylamino)pyridin-3-yl)-N-methylcyclo-butane-carboxamide], the figure is below 0.2 µM.
As for `CC(C)Oc1ccc(-c2nsc(Nc3ncccc3N(C)C(=O)C3CCCC3)n2)nc1` [Compound 172, N-(2-(3-(5-isopropoxy-pyridin-2-yl)-1,2,4-thiadiazol-5-ylamino)pyridin-3-yl)-N-methylcyclo-pentane-carboxamide], the figure is below 0.2 µM; as for `Cc1cccnc1Nc1nnc(-c2cc(OC(C)C)ccn2)s1` [Compound 173, 5-(4-isopropoxy-pyridin-2-yl)-N-(3-methyl-pyridin-2-yl)-1,3,4-thia-diazol-2-amine], 0.5 to 5 µM; as for `COc1ccnc(-c2nnc(Nc3ccc(C(F)(F)F)cn3)s2)c1` [Compound 174, 5-(4-methoxy-pyridin-2-yl)-N-(5-(trifluoromethyl)pyridin-2-yl)-1,3,4-thiadiazol-2-amine], 0.2 to 0.5 µM.
Consider `COc1ccnc(-c2nsc(Nc3ccc(C(F)(F)F)cn3)n2)c1` [Compound 176, 3-(4-methoxy-pyridin-2-yl)-N-(5-(trifluoromethyl)pyridin-2-yl)-1,2,4-thiadiazol-5-amine], for which the IC50 is below 0.2 µM.
Next, `COc1ccnc(-c2nsc(Nc3ccc(C(C)C)cn3)n2)c1` [Compound 177, N-(5-isopropyl-pyridin-2-yl)-3-(4-methoxy-pyridin-2-yl)-1,2,4-thiadiazol-5-amine]: below 0.2 µM; `CC(C)Oc1ccc(-c2nsc(Nc3ncccc3N3CCCC3=O)n2)nc1` [Compound 178, 1-(2-(3-(5-isopropoxy-pyridin-2-yl)-1,2,4-thiadiazol-5-ylamino)pyridin-3-yl)pyrrolidin-2-one]: 0.5 to 5 µM; `CC(C)Oc1cnc(-c2nsc(Nc3ncccc3N3CCCC3=O)n2)cc1C(F)(F)F` [Compound 179, 1-(2-(3-(5-isopropoxy-4-(trifluoromethyl)pyridin-2-yl)-1,2,4-thiadiazol-5-ylamino)pyridin-3-yl)pyrrolidin-2-one]: 0.5 to 5 µM.
For `COc1ccc(Nc2nnc(-c3ccc(OC(C)C)cn3)o2)nc1` [Compound 180, 5-(5-isopropoxy-pyridin-2-yl)-N-(5-methoxy-pyridin-2-yl)-1,3,4-oxadiazol-2-amine], the IC50 was 0.5 to 5 µM.
As for `CC(C)Oc1ccc(-c2nnc(Nc3ccc(C(C)C)cn3)s2)nc1` [Compound 181, 5-(5-isopropoxy-pyridin-2-yl)-N-(5-isopropyl-pyridin-2-yl)-1,3,4-thiadiazol-2-amine], the figure is 0.5 to 5 µM; as for `COc1ccnc(-c2nsc(Nc3cc(C(F)(F)F)c(C(C)C)cn3)n2)c1` [Compound 182, N-(5-iso-propyl-4-(trifluoro-methyl)pyridin-2-yl)-3-(4-methoxy-pyridin-2-yl)-1,2,4-thiadiazol-5-amine], 0.2 to 0.5 µM.
Next, `COc1ccc(Nc2nc(-c3cc(OC4CCCCC4)ccn3)ns2)nc1` [Compound 183, 3-(4-(cyclo-hexyloxy)pyridin-2-yl)-N-(5-methoxypyridin-2-yl)-1,2,4-thiadiazol-5-amine]: 0.2 to 0.5 µM; `COc1ccnc(-c2nsc(Nc3ccc(OC(C)C)cn3)n2)c1` [Compound 184, N-(5-isoprop-oxypyridin-2-yl)-3-(4-methoxy-pyridin-2-yl)-1,2,4-thiadiazol-5-amine]: below 0.2 µM; `COc1ccc(-c2nsc(Nc3ccc(C(C)C)cn3)n2)nc1` [Compound 185, N-(5-isopropyl-pyridin-2-yl)-3-(5-methoxy-pyridin-2-yl)-1,2,4-thiadiazol-5-amine]: 0.2 to 0.5 µM.
Next, `CC(C)Oc1cnc(-c2nsc(Nc3ncccc3N(C)C(=O)C3CC3)n2)cc1C(F)(F)F` [Compound 186, N-(2-(3-(5-isopropoxy-4-(trifluoro-methyl)pyridin-2-yl)-1,2,4-thiadiazol-5-ylamino)pyridin-3-yl)-N-methylcyclo-propanecarbox-amide]: 0.5 to 5 µM.
For the molecule `CC(=O)N(C)c1cccnc1Nc1nc(-c2cc(C(F)(F)F)c(OC(C)C)cn2)ns1` [Compound 187, N-(2-(3-(5-isopropoxy-4-(trifluoro-methyl)pyridin-2-yl)-1,2,4-thiadiazol-5-ylamino)pyridin-3-yl)-N-methylacetamide], the IC50 lay in the range of 0.5 to 5 µM.
Next, `CC(C)Oc1ccc(-c2nsc(Nc3ncccc3C(=O)N(C)C)n2)nc1` [Compound 188, 2-(3-(5-isoprop-oxypyridin-2-yl)-1,2,4-thiadiazol-5-ylamino)-N,N-dimethyl nicotinamide]: 0.2 to 0.5 µM; `CNC(=O)c1cccnc1Nc1nc(-c2ccc(OC(C)C)cn2)ns1` [Compound 189, 2-(3-(5-isoprop-oxypyridin-2-yl)-1,2,4-thiadiazol-5-ylamino)-N-methyl-nicotinamide]: 0.5 to 5 µM; `CC(C)Oc1ccc(-c2nsc(Nc3ncccc3C(=O)N3CCCC3)n2)nc1` [Compound 190, (2-(3-(5-isoprop-oxypyridin-2-yl)-1,2,4-thiadiazol-5-ylamino)pyridin-3-yl) (pyrrolidin-1-yl) methanone]: 0.2 to 0.5 µM.
Next, `CC(C)Oc1ccc(-c2nsc(Nc3ncccc3C(=O)N(C)C3CC(F)(F)C3)n2)nc1` [Compound 191, N-(3,3-difluoro-cyclobutyl)-2-(3-(5-isoprop-oxypyridin-2-yl)-1,2,4-thiadiazol-5-ylamino)-N-methyl-nicotinamide]: 0.2 to 0.5 µM; `Cc1cccnc1Nc1nc(-c2cc(C(=O)N(C)C)c(OC(C)C)cn2)ns1` [Compound 192, 5-isopropoxy-N,N-dimethyl-2-(5-(3-methylpyridin-2-ylamino)-1,2,4-thiadiazol-3-yl)isonicotin-amide]: 0.5 to 5 µM.
As for `CC(C)Oc1cnc(-c2nsc(Nc3ncccc3C(C)C)n2)cc1C(=O)N(C)C` [Compound 193, 5-isopropoxy-2-(5-(3-isopropylpyridin-2-ylamino)-1,2,4-thiadiazol-3-yl)-N,N-dimethy-lisonicotinamide], the figure is 0.2 to 0.5 µM.
Turning to `CC(C)Oc1cnc(-c2nsc(Nc3ncccc3N3CCCC3=O)n2)cc1C(=O)N(C)C` [Compound 194, 5-isopropoxy-N,N-dimethyl-2-(5-(3-(2-oxopyrrolidin-1-yl)pyridin-2-ylamino)-1,2,4-thiadiazol-3-yl)isonicotin-amide], the half-maximal inhibitory concentration (IC50) lay in the range of 0.5 to 5 µM.
